Experimental findings from US20240132910A1, “USE OF HISTIDINE RICH PEPTIDES AS A TRANSFECTION REAGENT FOR rAAV AND rBV PRODUCTION” (BioMarin Pharmaceutical Inc., priority 2021, published 2024) are described below.

Read-outs that look alike come from different tables or passages of the source. Ends that are not written are not given here.

Series [1] relates to Sf9 cells. The experiment in a line: AAV5 capsids from Sf9 cells infected with the rBVs, ddPCR. The class given is cell-based, Spodoptera frugiperda. The following applies: rBVs from transfected Sf9 cells, FIG. 19. On the procedure: The different rBVs were collected and used to further infect naive Sf9 cells to generate AAV5 capsids, where the rBVs have nucleotide sequences for generating AAV5 capsids. The titers were determined using ddPCR. […] The AAV5 capsids produced using LAH4-L1-F4 had concentrations of the VP1 capsid protein and ratios of capsid to vector genomes that were the same as AAV5 capsids produced using the control transfection reagent.

For series [2], the system named is Sf9 cells. The experiment in a line: rBV titers from bacmid-transfected Sf9 cells. Format: cell-based, Spodoptera frugiperda. The conditions noted are these: FIG. 18. The method, then: The titer of the rBV can be determined using a foci/viral plaque assay. This assay first includes the step of infecting cells with serial dilutions of a solution containing rBV. After infection occurs for a predetermined time, the rBV is removed from the cultures and the cells are incubated for a pre-determined time. After the pre-determined time has elapsed, a plaquing media (e.g., containing agarose) is added to the cultures and allowed to harden. The cells are allowed to further incubate for a pre-determined time and the number of plaques are counted after the pre-determined time. The titer is calculated using the following formula: Titer (plaque forming units/mL)=number of plaques×dilution factor×(1/(mL of inoculum/well)
AAV5 capsids were also produced in Sf9 cells. To produce the AAV5 capsids, Sf9 cells were transfected with bacmids having nucleotide sequences for generating AAV5 capsids or providing an AAV genome vector using the control transfection reagent and different HRPs. […] In culture, the rBVs generated from the initial bacmid transfection subsequently infect other Sf9 cells that in turn generated more rBVs.

Series [3] is described as follows: Viability of transfected HEK293 cells (Trypan Blue exclusion), AAV9 production in Ambr15. The conditions noted are these: human, read-out: average cell viability. The class given is cell-based. On the procedure: The cell viabilities were quantified using an automated cell counter and Trypan Blue exclusion.
In Ambr15 minibioreactors (15 mL volume), AAV9 capsids were produced in HEK293 cells transfected with plasmids for producing AAV9 capsids and providing an AAV genome vector containing an GFP expression cassette using different complexation volumes of the LAH4 peptide. Prior to transfection, the plasmids were mixed with a concentration of the LAH4 peptide and incubated for 10 minutes and 60 minutes. The LAH4/plasmids mixtures had volumes that were 1% and 10% of the HEK293 cell culture volume. The titers were determined using ddPCR and GFP intensity was measured by attune flow cytometer.

Series [4] can be described thus: Stability of DNA:transfection reagent complexes before transfection. The method, then: The LAH4 peptide was allowed to incubate with the plasmids for more than 1 hour for large scale (more than or equal 100 L) transient transfections since this incubation time allowed for improved stability of the transfection complexes such that the processes were robust and reproducible. It was discovered that LAH4: DNA complexes are stable at least for 1 hour. In a follow up study, the stability of LAH:DNA complexes are evaluated for up to 1 week when stored at 2-8° C. and/or room temperature and with or without exposure to ambient light.
Transfection: LAH4 solution from the same batch is kept at −20° C. in single use aliquots. LAH4 is thawed at RT and mixed with plasmid DNA containing GFP reporter gene. DNA:LAH4 complexes are kept in closed caps tubes to prevent evaporation at either room temperature or 2-8° C. for indicated periods of time before transfection.
Stability of LAH4:DNA complexes: Biophysical characterization of LAH4:DNA complexes is performed. Methods can include size and charge measurements.

Another series can be described thus: in vitro. Format: in vitro ADME. The following applies: human, cells or culture medium. The method, then:
Clearance of the ancillary materials such as transfection reagent during bioprocessing is emphasized. We hypothesized that LAH4 is largely degraded by cellular proteases after transfection process is completed. […] Different concentrations of the LAH4 peptide were added to cell culture volumes of 3 L and 100 L (i.e., bioreactors). At 4 hours post transfection, the LAH4 peptide concentration was reduced by ˜45% to ˜85% relative to initial LAH4 peptide concentration. At 24 hours post transfection, the LAH4 peptide concentration was reduced by ˜83% to ˜97% relative to initial LAH4 peptide concentration. At 48 hours post transfection, the LAH4 peptide concentration was reduced by ˜93% to ˜99% relative to initial LAH4 peptide concentration. At 72 hours post transfection, the LAH4 peptide concentration was reduced by ˜96% to ˜99% relative to initial LAH4 concentration.
Cell culturing: Suspension HEK293 cells are cultured according to the manufacturer's instructions in the provided cell culture media. For small scale transfection study HEK293 cells are seeded in the range of at a predetermined cell density in 125 ml Erlenmeyer shake flasks on the day of transfection.
LAH4 detection in cells: Samples are collected at different time points after transfection and analyzed using LC/MS assay.

Take “KKALLAHFFHLLALLALHFFHALKKA (Synthetic LAH4-L1-F4 peptide)”: the “AAV5 capsid titers versus control reagent” value in the series with Sf9 cells [1] is given as “comparable”. For the same substance, the “rBV titers versus control reagent” value in the series on Sf9 cells [2] is given as “comparable”.
Turning to “KKALLALALHHLAHLAHHLALALKKA (Synthetic LAH5 peptide)”, in the series with Sf9 cells [2], the “rBV titers versus control reagent” value is listed as “comparable”.
What is called viability is a read-out of living cells in per cent, often relative to untreated cells. In the case of KKALLALALHHLAHLALHLALALKKA [LAH4], the viability was greater than 75% in series [3] (Ambr15, 1% complexation volume, FIG. 10D); roughly 72.5% in series [3] (Ambr15, 10% complexation volume, FIG. 10D); roughly 72.5% in series [3] (Ambr15, 10 minute complexation time, FIG. 10H); greater than 75% in series [3] (Ambr15, 60 minute complexation time, FIG. 10H). Also, the “stability of LAH4:DNA complexes” value in series [4] was no less than 1 h. For the same substance, the metabolised at 72 h in “in vitro” was greater than 95%.
Turning to “polyethylenimine [PEI, reference compound]”, the “stability when mixed with plasmids and incubated for extended periods of time” value in series [4] is recorded as “does not remain stable”.
